Data on seven compounds can be found in paper PMC10683023, “Targeting Glial Cells by Organic Anion-Transporting Polypeptide 1C1 (OATP1C1)-Utilizing L-Thyroxine-Derived Prodrugs” (Journal of Medicinal Chemistry, 2023).

Data set [1] relates to human U-87MG glioma cells. The data set can be described thus: Concentration-dependent cellular uptake into human U-87MG glioma cells. The data set is classed as cell-based. The following applies: for Km / Vmax, cellular uptake, U-87MG: 5–400 μM, 30 min, 37 °C. The protocol: U-87MG (ATCC, HTB-14, unknown origin) was purchased from Lonza (Basel, Switzerland). The cells were cultured in standard conditions (37 °C, 5% CO2) using Dulbecco’s modified Eagle’s medium (DMEM) supplemented with L-glutamine (2.0 mM), heat-inactivated fetal bovine serum (FBS) (10%), penicillin (50 U/mL), and streptomycin (50 μg/mL). U-87MG cells (passages 8–25) were seeded at a density of 1 × 10^5 cells/well onto 24-well plates and used for the uptake experiments 1 day after seeding. All of the studies were carried out as three biological replicates from the same cell passage.
After removal of the culture medium, U-87MG human glioma cells and mouse primary astrocytes were carefully washed with prewarmed Hank’s balanced salt solution (HBSS) containing 125.0 mM NaCl (or choline chloride in Na^+ free conditions), 4.8 mM KCl, 1.2 mM MgSO4, 1.2 mM KH2PO4, 1.3 mM CaCl2, 5.6 mM glucose, and 25.0 mM 4-(2-hydroxyethyl)piperazine-1-ethanesulfonic acid (HEPES) with the pH adjusted to either 7.4 or pH 8.5 with 1 M NaOH (or KOH in sodium-free conditions). In the experiments at lower pH (4.5–6.5), 25.0 mM HEPES was replaced by 2-(N-morpholino) ethanesulfonic acid (MES), and the pH was adjusted to 4.5, 5.5, and 6.5 by 1.0 M NaOH. Preincubation was done with 500 μL of prewarmed HBSS at 37 °C for 10 min before adding the substrate for the uptake experiments. The functionality of OATP1C1 in human glioma U-87MG cells was studied with a known substrate (L-thyroxine, T4) and of oatp1a4, 1a5, and 1a6 in mouse primary astrocytes with [6,7-^3H(N)]-estrone-3-sulfate (ES) by incubating the uptake solution (250 μL in HBSS) consisting of 5–400 μM of the substrate at 37 °C for 30 min. After incubation, the uptake was stopped by adding 500 μL of ice-cold HBSS, and the cells were washed two times with ice-cold HBSS (2 × 500 μL). The cells were then lysed with 500 μL of 0.1 M NaOH (60 min), the lysate was neutralized, and the protein was precipitated with acidic acetonitrile (ACN with 4.8% formic acid). The supernatants were analyzed by the high-performance liquid chromatography (HPLC) methods described below (T4) or by using a liquid scintillation counter (MicroBeta2 counter, PerkinElmer, Waltham, MA) (ES). The concentrations of T4 and ES were calculated from the spiked standard curve and normalized with the protein concentrations. The protein concentrations on each plate were determined as a mean of three samples by Bio-Rad Protein Assay, based on the Bradford dye-binding method, using bovine serum albumin (BSA) as a standard protein and measuring the absorbance (595 nm) by a multiplate reader (EnVision, PerkinElmer, Inc., Waltham, MA). The OATP-mediated uptake was confirmed by changing the pH of the uptake buffer in the absence of sodium ions, and in the case of OATP1C1 in human U-87MG cells, the uptake of T4 (100 μM) was studied in the presence of competing OATP1C1-ligands, diclofenac and flufenamic acid (100 μM), and in the case of oatp1a4/1a5/1a6 in mouse primary astrocytes, the uptake of ES (100 μM) was studied in the presence of competing OATO1A2-ligand, naringin (100 μM).
Cellular uptake of prodrugs 1–8 was studied as described for L-thyroxine above by adding compounds at a concentration of 5–400 μM in prewarmed HBSS buffer (250 μL) on the cell layer and incubating at 37 °C for 30 min (uptake was linear with all compounds up to 30 min). Subsequently, the cells were washed three times with ice-cold HBSS and lysed with 500 μL of 0.1 M NaOH (60 min). The lysate was neutralized; the proteins were precipitated with acidic ACN (containing 4.8% formic acid), and the supernatants were analyzed by the (HPLC) methods described below. The concentrations of each prodrug normalized to protein concentration were calculated from the standard curve prepared by spiking known concentrations of compounds into ACN-precipitated cell lysate. […]

Data set [2] can be described thus: Enzymatic bioconversion in human liver S9 fraction. The format is in vitro ADME. The settings on record: for Enzymatic stability, remaining percentage, human liver S9: after 5 h incubation, 100 μM prodrug. On the procedure: (§1) The rates of bioactivation of the prodrugs 1–8 in mouse and human liver S9 fractions, as well as in mouse primary astrocyte–microglia homogenate, were determined at +37 °C. The incubation mixtures were prepared by mixing liver S9 subcellular fraction or brain cell homogenate (final protein concentration 1.0 mg/mL) with isotonic Tris–HCl buffer (pH 7.4) and 10 mM prodrug stock solution in DMSO (the initial concentration of prodrugs was 100 μM and the DMSO concentration was […]). The mixture was incubated for 5 h, and the samples ([…]) were withdrawn at appropriate intervals. The enzymatic reaction was terminated by the addition of ice-cold acetonitrile ([…]), and the samples were centrifuged for 5 min at 12 000 rpm at room temperature and kept on ice until the supernatants were analyzed by the HPLC method described below. In blank reactions, the S9 fractions were replaced with the same volume of buffer. The pseudo-first-order half-lives (t1/2) for the rates of bioconversion of the prodrugs were calculated from the slope of the linear portion of the plotted logarithm of the remaining prodrug concentration versus time. The rates of bioactivation of prodrugs 1–8 in human plasma and mouse serum were determined at 37 °C as above by adding 10 mM stock solution of the prodrug to plasma/serum in a ratio of 1:10 and analyzed similarly to the samples from S9 fractions.
(§2) The amount of prodrug 1–8 was determined by the HPLC system, which consisted of an Agilent 1100 binary pump (Agilent Technologies Inc., Wilmington, DE), an 1100 micro vacuum degasser, an HP 1050 Autosampler, and an HP 1050 variable wavelength detector, operated at 230–240 nm. The chromatographic separations were achieved on an Agilent Zorbax SB-C18 analytical column (4.4 mm × 150 mm, 5 μm) (Agilent Technologies Inc., Wilmington, DE) by using isocratic elution of water containing 0.1% formic acid (pH ca. 3.0) and acetonitrile containing 0.1% formic acid with ratios of 50:50, 30:70, 40:60, 50:50, 50:50, 40:60, 40:60, and 30:70 (v/v), respectively, for prodrug 1–8. […] The lower limit of quantification for prodrugs 1–8 was 0.20 μM. These HPLC methods were also accurate, precise, and selective over the range of 0.5–20 μM.

A short description of data set [3]: Enzymatic bioconversion in human plasma. The settings on record: after 5 h incubation, 37 °C, mean ± SD, n = 3. The data set is classed as in vitro ADME. On the procedure:
as §1, §2

Data set [4] can be described thus: Enzymatic bioconversion in mouse primary astrocyte–microglia homogenate. The format is in vitro ADME. The settings on record: after 5 h incubation, 100 μM prodrug, 37 °C, mean ± SD, n = 3. The protocol:
as §1, §2

Turning to `CC(C(=O)Oc1c(I)cc(Oc2c(I)cc(C[C@H](N)C(=O)O)cc2I)cc1I)c1cccc(C(=O)c2ccccc2)c1` (mixture of isomers) [Prodrug 2, (2S)-2-Amino-3-(4-(4-((2-(3-benzoylphenyl)propanoyl)oxy)-3,5-diiodophenoxy)-3,5-diiodophenyl)propanoic acid], in data set [1], the Km worked out at 118 ± 27 µM and the “Vmax, cellular uptake, U-87MG” value amounted to 13 nmol/min/mg. Further, the “Vmax, cellular uptake, U-87MG” value in data set [1] (listed as PD2) was found to be 13.0 ± 1.3 nmol/min/mg. The “Enzymatic stability, remaining percentage, human liver S9” value in data set [2] (37 °C, mean ± SD, n = 3) is recorded as 85.71 ± 4.27%. Also, in data set [3], the “Enzymatic stability, remaining percentage, human plasma” value amounted to 96.47 ± 3.53%. In addition, in data set [4], the “Enzymatic stability, remaining percentage, mouse brain cell homogenate” value was found to be 96.01 ± 3.99%.

On to `COc1ccc2cc([C@H](C)C(=O)Oc3c(I)cc(C[C@H](N)C(=O)O)cc3I)ccc2c1` [Prodrug 5, (S)-2-Amino-3-(3,5-diiodo-4-(((S)-2-(6-methoxynaphthalen-2-yl)propanoyl)oxy)phenyl)propanoic acid], for which the Km in data set [1] was found to be 138 ± 79 µM. For the same compound, the “Vmax, cellular uptake, U-87MG” value in data set [1] is on record as 9.0 nmol/min/mg; in data set [1] (listed as PD5), 9.0 ± 3.7 nmol/min/mg. In data set [2], the “Bioconversion rate in human liver, slower than that of prodrug 6” value is on record as “around 10%”. In addition, the “Enzymatic stability, remaining percentage, human liver S9” value in data set [2] (37 °C, mean ± SD, n = 3) amounted to 69.44 ± 2.10%. In addition, the “Enzymatic stability, remaining percentage, human plasma” value in data set [3] amounted to 70.94 ± 29.06%. Moreover, the “Enzymatic stability, remaining percentage, mouse brain cell homogenate” value in data set [4] stood at 92.98 ± 6.14%.

As to `N[C@@H](Cc1cc(I)c(OC(=O)c2ccccc2O)c(I)c1)C(=O)O` [Prodrug 3, (S)-2-Amino-3-(4-((2-hydroxybenzoyl)oxy)-3,5-diiodophenyl)propanoic acid], in data set [1], the Km worked out at 539 ± 97 µM and the “Vmax, cellular uptake, U-87MG” value is reported as 9.9 ± 1.2 nmol/min/mg. For the same compound, the “Enzymatic stability, remaining percentage, human liver S9” value in data set [2] (37 °C, mean ± SD, n = 3) was 96.84 ± 3.16%. Also, in data set [3], the “Enzymatic stability, remaining percentage, human plasma” value was determined as 68.94 ± 2.01%. Also, the “Enzymatic stability, remaining percentage, mouse brain cell homogenate” value in data set [4] is 95.26 ± 4.74%.

On to `CC(C(=O)Oc1c(I)cc(C[C@H](N)C(=O)O)cc1I)c1ccc(-c2ccccc2)c(F)c1` (mixture of isomers) [Prodrug 7, (2S)-2-Amino-3-(4-((2-(2-fluoro-[1,1′-biphenyl]-4-yl)propanoyl)oxy)-3,5-diiodophenyl)propanoic acid], for which, in data set [1], the Michaelis constant (Km) was determined as 381 ± 73 µM and the “Vmax, cellular uptake, U-87MG” value amounted to 19.8 ± 2.3 nmol/min/mg. Moreover, the “Bioconversion rate in human liver relative to the corresponding T4 derivative” value in data set [2] (DIT prodrug faster than T4 prodrug) is on record as roughly 2.5 times. Further, in data set [2] (37 °C, mean ± SD, n = 3), the “Enzymatic stability, remaining percentage, human liver S9” value was 30.54 ± 3.21%. Moreover, the half-life at 100 µM in data set [2] (human, pH 7.4, liver S9 fraction, 37 °C, mean ± SD, n = 3, read-out: Enzymatic bioconversion half-life t1/2, human liver) turned out to be 2.91 ± 0.25 h. The “Enzymatic stability, remaining percentage, human plasma” value in data set [3] is on record as 90.52 ± 9.48%. Further, in data set [4], the “Enzymatic stability, remaining percentage, mouse brain cell homogenate” value worked out at 92.68 ± 7.32%.

As for `CC(C(=O)Oc1c(I)cc(Oc2c(I)cc(C[C@H](N)C(=O)O)cc2I)cc1I)c1ccc(-c2ccccc2)c(F)c1` (mixture of isomers) [Prodrug 8, (2S)-2-Amino-3-(4-(4-((2-(2-fluoro-[1,1′-biphenyl]-4-yl)propanoyl)oxy)-3,5-diiodophenoxy)-3,5-diiodophenyl)propanoic acid], in data set [1], the Km came to 221 ± 48 µM and the “Vmax, cellular uptake, U-87MG” value was 21.5 ± 2.4 nmol/min/mg. Moreover, the “Enzymatic stability, remaining percentage, human liver S9” value in data set [2] (37 °C, mean ± SD, n = 3) was found to be 80.17 ± 2.23%. The “Enzymatic stability, remaining percentage, human plasma” value in data set [3] was 97.17 ± 2.83%. Besides, the “Enzymatic stability, remaining percentage, mouse brain cell homogenate” value in data set [4] was determined as 97.94 ± 2.06%.

`COc1ccc2cc([C@H](C)C(=O)Oc3c(I)cc(Oc4c(I)cc(C[C@H](N)C(=O)O)cc4I)cc3I)ccc2c1` [Prodrug 6, (S)-2-Amino-3-(4-(3,5-diiodo-4-(((S)-2-(6-methoxynaphthalen-2-yl)propanoyl)oxy)phenoxy)-3,5-diiodophenyl)propanoic acid]: in data set [1], the Km was determined as 138 ± 36 µM and the “Vmax, cellular uptake, U-87MG” value came out at 13.5 nmol/min/mg. Moreover, the “Vmax, cellular uptake, U-87MG” value in data set [1] (listed as PD6) stood at 13.5 ± 1.6 nmol/min/mg. The “Enzymatic stability, remaining percentage, human liver S9” value in data set [2] (37 °C, mean ± SD, n = 3) is given as 78.70 ± 3.74%. The “Enzymatic stability, remaining percentage, human plasma” value in data set [3] was found to be 96.32 ± 3.68%. The “Enzymatic stability, remaining percentage, mouse brain cell homogenate” value in data set [4] was found to be 95.18 ± 4.82%.

Regarding `N[C@@H](Cc1cc(I)c(Oc2cc(I)c(OC(=O)c3ccccc3O)c(I)c2)c(I)c1)C(=O)O` [Prodrug 4, (S)-2-Amino-3-(4-(4-((2-hydroxybenzoyl)oxy)-3,5-diiodophenoxy)-3,5-diiodophenyl)propanoic acid], in data set [1], the Km was determined as 106 ± 32 µM and the “Vmax, cellular uptake, U-87MG” value was 9.0 ± 1.1 nmol/min/mg. For the same compound, the “Transport capacity relative to prodrug 3” value in data set [1] (at 200 μM concentration, U-87MG cells) is on record as “ca. 3.5 times”. Also, in data set [1] (from Km values, U-87MG cells), the “Affinity relative to corresponding DIT prodrug 3” value amounted to 5 times. Besides, the “Enzymatic stability, remaining percentage, human liver S9” value in data set [2] (37 °C, mean ± SD, n = 3) turned out to be 84.00 ± 3.90%. For the same compound, in data set [3], the “Enzymatic stability, remaining percentage, human plasma” value came to 97.17 ± 2.83%. The “Enzymatic stability, remaining percentage, mouse brain cell homogenate” value in data set [4] is listed as 91.38 ± 5.34%.

The Km is the substrate concentration at which the rate is half of its maximum.
